Tests used:
Type in all cases: functional
Conditions in all cases: time 18-20 hrs
Klebsiella pneumoniae [1] = experiment: Antibacterial activity against KPC-2 producing multidrug-resistant Klebsiella pneumoniae clinical isolate 15-3 assessed as inhibition of bacterial growth incubated for 18 to 20 hrs by two fold serial dilution assay
Pseudomonas aeruginosa [2] = experiment: Antibacterial activity against Pseudomonas aeruginosa ATCC 27853 assessed as inhibition of bacterial growth incubated for 18 to 20 hrs by two fold serial dilution assay
Escherichia coli [3] = experiment: Antibacterial activity against ESBL-producing multidrug-resistant Escherichia coli clinical isolate 14-4 assessed as inhibition of bacterial growth incubated for 18 to 20 hrs by two fold serial dilution assay
Pseudomonas aeruginosa [4] = experiment: Antibacterial activity against IMP-4 producing multidrug-resistant Pseudomonas aeruginosa clinical isolate 15-4 assessed as inhibition of bacterial growth incubated for 18 to 20 hrs by two fold serial dilution assay
Acinetobacter baumannii [5] = experiment: Antibacterial activity against OXA-23 producing multidrug-resistant Acinetobacter baumannii clinical isolate 15-3 assessed as inhibition of bacterial growth incubated for 18 to 20 hrs by two fold serial dilution assay
Escherichia coli [6] = experiment: Antibacterial activity against ESBL-producing multidrug-resistant Escherichia coli clinical isolate 14-2 assessed as inhibition of bacterial growth incubated for 18 to 20 hrs by two fold serial dilution assay
Klebsiella pneumoniae [7] = experiment: Antibacterial activity against KPC-2 producing multidrug-resistant Klebsiella pneumoniae clinical isolate 15-1 assessed as inhibition of bacterial growth incubated for 18 to 20 hrs by two fold serial dilution assay
Acinetobacter baumannii [8] = experiment: Antibacterial activity against OXA-23 producing multidrug-resistant Acinetobacter baumannii clinical isolate 15-2 assessed as inhibition of bacterial growth incubated for 18 to 20 hrs by two fold serial dilution assay
Acinetobacter baumannii [9] = experiment: Antibacterial activity against OXA-23 producing multidrug-resistant Acinetobacter baumannii clinical isolate 15-1 assessed as inhibition of bacterial growth incubated for 18 to 20 hrs by two fold serial dilution assay
Pseudomonas aeruginosa [10] = experiment: Antibacterial activity against IMP-4 producing multidrug-resistant Pseudomonas aeruginosa clinical isolate 15-1 assessed as inhibition of bacterial growth incubated for 18 to 20 hrs by two fold serial dilution assay
Acinetobacter baumannii [11] = experiment: Antibacterial activity against OXA-23 producing multidrug-resistant Acinetobacter baumannii clinical isolate 15-5 assessed as inhibition of bacterial growth incubated for 18 to 20 hrs by two fold serial dilution assay
Klebsiella pneumoniae [12] = experiment: Antibacterial activity against KPC-2 producing multidrug-resistant Klebsiella pneumoniae clinical isolate 15-2 assessed as inhibition of bacterial growth incubated for 18 to 20 hrs by two fold serial dilution assay
Escherichia coli [13] = experiment: Antibacterial activity against ESBL-producing multidrug-resistant Escherichia coli clinical isolate 14-1 assessed as inhibition of bacterial growth incubated for 18 to 20 hrs by two fold serial dilution assay
Acinetobacter baumannii [14] = experiment: Antibacterial activity against OXA-23 producing multidrug-resistant Acinetobacter baumannii clinical isolate 15-4 assessed as inhibition of bacterial growth incubated for 18 to 20 hrs by two fold serial dilution assay
Klebsiella pneumoniae [15] = experiment: Antibacterial activity against KPC-2 producing multidrug-resistant Klebsiella pneumoniae clinical isolate 15-5 assessed as inhibition of bacterial growth incubated for 18 to 20 hrs by two fold serial dilution assay
Pseudomonas aeruginosa [16] = experiment: Antibacterial activity against IMP-4 producing multidrug-resistant Pseudomonas aeruginosa clinical isolate 15-5 assessed as inhibition of bacterial growth incubated for 18 to 20 hrs by two fold serial dilution assay
Pseudomonas aeruginosa [17] = experiment: Antibacterial activity against IMP-4 producing multidrug-resistant Pseudomonas aeruginosa clinical isolate 19-1 assessed as inhibition of bacterial growth incubated for 18 to 20 hrs by two fold serial dilution assay
Pseudomonas aeruginosa [18] = experiment: Antibacterial activity against IMP-4 producing multidrug-resistant Pseudomonas aeruginosa clinical isolate 19-5 assessed as inhibition of bacterial growth incubated for 18 to 20 hrs by two fold serial dilution assay
Acinetobacter baumannii [19] = experiment: Antibacterial activity against OXA-23 producing multidrug-resistant Acinetobacter baumannii clinical isolate 17-2 assessed as inhibition of bacterial growth incubated for 18 to 20 hrs by two fold serial dilution assay
Pseudomonas aeruginosa [20] = experiment: Antibacterial activity against IMP-4 producing multidrug-resistant Pseudomonas aeruginosa clinical isolate 17-13 assessed as inhibition of bacterial growth incubated for 18 to 20 hrs by two fold serial dilution assay
Pseudomonas aeruginosa [21] = experiment: Antibacterial activity against IMP-4 producing multidrug-resistant Pseudomonas aeruginosa clinical isolate 19-17 assessed as inhibition of bacterial growth incubated for 18 to 20 hrs by two fold serial dilution assay
Escherichia coli [22] = experiment: Antibacterial activity against Escherichia coli ATCC35218 assessed as inhibition of bacterial growth incubated for 18 to 20 hrs by two fold serial dilution assay
Pseudomonas aeruginosa [23] = experiment: Antibacterial activity against IMP-4 producing multidrug-resistant Pseudomonas aeruginosa clinical isolate 17-1 assessed as inhibition of bacterial growth incubated for 18 to 20 hrs by two fold serial dilution assay

SMILES	MIC (Klebsiella pneumoniae [1]) [µg/mL]	MIC (Escherichia coli [3]) [µg/mL]	MIC (Acinetobacter baumannii [5]) [µg/mL]	MIC (Escherichia coli [6]) [µg/mL]	MIC (Klebsiella pneumoniae [7]) [µg/mL]	MIC (Acinetobacter baumannii [8]) [µg/mL]	MIC (Acinetobacter baumannii [9]) [µg/mL]	MIC (Acinetobacter baumannii [11]) [µg/mL]	MIC (Klebsiella pneumoniae [12]) [µg/mL]	MIC (Escherichia coli [13]) [µg/mL]	MIC (Acinetobacter baumannii [14]) [µg/mL]	MIC (Klebsiella pneumoniae [15]) [µg/mL]	MIC (Pseudomonas aeruginosa [20]) [µg/mL]	MIC (Pseudomonas aeruginosa [21]) [µg/mL]	MIC (Escherichia coli [22]) [µg/mL]	MIC (Pseudomonas aeruginosa [23]) [µg/mL]	other results
Nc1nc(/C(=N/OC2(C(=O)O)CC2)C(=O)N[C@@H]2C(=O)N3C(C(=O)O)=C(CSCCNC(=O)c4ccc(O)c(O)c4Cl)CS[C@H]23)cs1.O=C(O)C(F)(F)F	> 64	64	32	2	16	64	64	64	32	0.5	64	32	–	–	–	–	MIC (Pseudomonas aeruginosa [2]): 4 µg/mL; MIC (Pseudomonas aeruginosa [4]): 1 µg/mL; MIC (Pseudomonas aeruginosa [10]): 1 µg/mL; MIC (Pseudomonas aeruginosa [16]): 4 µg/mL
Cc1sc(N)nc1/C(=N/OC(C(=O)O)C1CCC(F)(F)CC1)C(=O)N[C@@H]1C(=O)N2C(C(=O)O)=C(CSCCNC(=O)c3ccc(O)c(O)c3Cl)CS[C@H]12.O=C(O)C(F)(F)F (stereo partly specified)	8	0.5	4	1	2	2	4	2	4	0.5	4	2	0.25	0.25	0.25	–	MIC (Pseudomonas aeruginosa [17]): 8 µg/mL; MIC (Pseudomonas aeruginosa [18]): 1 µg/mL; MIC (Acinetobacter baumannii [19]): 0.125 µg/mL
Nc1nc(/C(=N/OC(C(=O)O)C2CC2)C(=O)N[C@@H]2C(=O)N3C(C(=O)O)=C(CSCCNC(=O)c4ccc(O)c(O)c4Cl)CS[C@H]23)cs1.O=C(O)C(F)(F)F (stereo partly specified)	64	0.5	64	4	16	64	32	64	4	0.5	64	4	1	1	0.25	1	–
Nc1nc(/C(=N/OC(C(=O)O)C2CCCC2)C(=O)N[C@@H]2C(=O)N3C(C(=O)O)=C(CSCCNC(=O)c4ccc(O)c(O)c4Cl)CS[C@H]23)cs1.O=C(O)C(F)(F)F (stereo partly specified)	4	0.25	16	2	2	16	32	32	2	0.25	16	2	8	1	0.25	1	–
Nc1nc(/C(=N/OC(C(=O)O)C2CCSCC2)C(=O)N[C@@H]2C(=O)N3C(C(=O)O)=C(CSCCNC(=O)c4ccc(O)c(O)c4Cl)CS[C@H]23)cs1.O=C(O)C(F)(F)F (stereo partly specified)	4	0.25	4	0.5	2	8	4	4	4	0.125	8	8	1	0.5	0.25	–	–
Nc1nc(/C(=N/OC(C(=O)O)C2CCS(=O)(=O)CC2)C(=O)N[C@@H]2C(=O)N3C(C(=O)O)=C(CSCCNC(=O)c4ccc(O)c(O)c4Cl)CS[C@H]23)cs1.O=C(O)C(F)(F)F (stereo partly specified)	2	0.5	2	1	2	2	2	4	2	1	4	0.5	1	2	–	–	–
C[C@@](O/N=C(\C(=O)N[C@@H]1C(=O)N2C(C(=O)O)=C(CSCCNC(=O)c3ccc(O)c(O)c3Cl)CS[C@H]12)c1csc(N)n1)(C(=O)O)C(F)(F)F.O=C(O)C(F)(F)F	2	0.5	32	0.5	1	32	16	16	1	0.125	16	1	0.125	0.5	0.06	4	–

From ChEMBL document CHEMBL5543142, “Discovery of YFJ-36: Design, Synthesis, and Antibacterial Activities of Catechol-Conjugated β-Lactams against Gram-Negative Bacteria” (J Med Chem, 2024)
